We go through 32 compounds from patent US20240150321A1, “PYRAZOLYLSULFONAMIDE COMPOUNDS AND THEIR USE IN THERAPY” (HOTSPOT THERAPEUTICS, INC., priority 2022, published 2024).

The target in experiment [1] is Avi-tagged FL MALT-1 (Homo sapiens (Human), UniProt Q9UDY8). Description: MALT-1 Fluorogenic Peptide Cleavage Assay (MALT1 inhibition assay). It is filed as biochemical. The following applies: Ac-LRSR-AMC peptide substrate, 30 min pre-incubation, 90 min reaction at room temperature. In a few lines: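 Cleavage of Ac-LRSR-AMC, read as fluorescence at 342/441 nm after 90 min at room temperature, with substrate working stocks of 50 μM (Km) or 280 μM (10×Km). Enzyme, Avi-tagged full-length MALT-1 (40 nM stock), was first pre-incubated 30 min with compound in citrate/HEPES pH 6.89 buffer with TCEP, EDTA, CHAPS and 2% DMSO; IC50 fitted from normalised % inhibition.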

Experiment [2] concerns NF-kB reporter in Jurkat cells. Description: NF-kB reporter assay in Jurkat cells stimulated with aCD3/aCD28/PMA. It is filed as cell-based. The conditions noted are these: Homo sapiens, read-out: NF-kB Reporter Assay IC50. In short, it runs like this: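 Luminescence (One-Glo) from the NF-kB reporter yielded IC50 values. Stimulation lasted 4 h at 37° C with aCD3, aCD28 and PMA (final 5, 5 and 0.03 […]), after 1 h compound pre-exposure of 25,000 Jurkat cells per well in serum-free RPMI.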

Where [3] appears, read: Jurkat cells, 1 hr compound pre-incubation, aCD3/aCD28/PMA stimulation 4 hr, One-Glo readout.

Read-outs that look alike come from different tables or passages of the source. Where only a bound is given, the exact number is not on record here.

Chain of Avi-tagged FL MALT-1 (Q9UDY8 whole entry): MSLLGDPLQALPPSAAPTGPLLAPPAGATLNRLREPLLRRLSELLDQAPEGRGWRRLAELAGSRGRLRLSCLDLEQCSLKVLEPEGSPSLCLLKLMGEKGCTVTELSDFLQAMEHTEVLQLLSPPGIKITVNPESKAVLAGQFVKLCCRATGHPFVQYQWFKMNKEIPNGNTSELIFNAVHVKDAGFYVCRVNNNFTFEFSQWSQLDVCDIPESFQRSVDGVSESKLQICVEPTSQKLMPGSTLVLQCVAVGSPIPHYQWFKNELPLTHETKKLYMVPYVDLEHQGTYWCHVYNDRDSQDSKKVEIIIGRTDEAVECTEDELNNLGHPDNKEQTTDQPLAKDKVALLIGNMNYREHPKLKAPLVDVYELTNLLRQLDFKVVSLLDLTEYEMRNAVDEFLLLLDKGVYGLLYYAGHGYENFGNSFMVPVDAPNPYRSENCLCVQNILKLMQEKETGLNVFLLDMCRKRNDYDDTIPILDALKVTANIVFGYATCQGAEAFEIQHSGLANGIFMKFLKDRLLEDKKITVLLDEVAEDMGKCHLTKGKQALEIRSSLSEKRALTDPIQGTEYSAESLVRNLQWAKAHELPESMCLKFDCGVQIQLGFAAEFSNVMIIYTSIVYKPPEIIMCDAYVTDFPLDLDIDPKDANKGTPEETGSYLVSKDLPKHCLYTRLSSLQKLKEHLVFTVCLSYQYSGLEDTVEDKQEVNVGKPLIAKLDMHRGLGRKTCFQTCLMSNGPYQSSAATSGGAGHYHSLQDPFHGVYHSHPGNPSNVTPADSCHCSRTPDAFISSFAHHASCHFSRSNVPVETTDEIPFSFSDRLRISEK

Turning to `Cn1ncc2cccc(NS(=O)(=O)c3cnn(-c4cc(N5CC(C)(F)C5)ccn4)c3)c21` [Compound I-440, 1-[4-(3-fluoro-3-methylazetidin-1-yl)pyridin-2-yl]-N-(1-methylindazol-7-yl)pyrazole-4-sulfonamide], the half-maximal inhibitory concentration (IC50) in experiment [1] was more than 2.5 µM; in experiment [2] (setting [3]), less than 0.4 µM.

Regarding `COC1CN(c2ccnc(-n3cc(S(=O)(=O)Nc4cccc5cnn(C)c45)cn3)c2)C1` [Compound I-441, 1-(4-(3-methoxyazetidin-1-yl)pyridin-2-yl)-N-(1-methyl-1H-indazol-7-yl)-1H-pyrazole-4-sulfonamide], the results for the IC50 in experiment [1] and in experiment [2] (setting [3]) were more than 2.5 µM and less than 0.4 µM, respectively.

Regarding `COc1ccc2cnn(C)c2c1NS(=O)(=O)c1cnn(-c2cc(N3CC(F)C3)ccn2)c1` [Compound I-442], the IC50 in experiment [1] is 1 to 2.5 µM; in experiment [2] (setting [3]), less than 0.4 µM.

`COc1ccc2cnn(C)c2c1NS(=O)(=O)c1cnn(-c2cc(N3CC(F)(F)C3)ccn2)c1` [Compound I-443, 1-[4-(3,3-difluoroazetidin-1-yl)pyridin-2-yl]-N-(6-methoxy-1-methylindazol-7-yl)pyrazole-4-sulfonamide]: the half-maximal inhibitory concentration (IC50) in experiment [1] was 1 to 2.5 µM; in experiment [2] (setting [3]), less than 0.4 µM.

As to `COc1ccc2cnn(C)c2c1NS(=O)(=O)c1cnn(-c2cc(N3CC(C)(F)C3)ccn2)c1` [Compound I-444, 1-(4-(3-fluoro-3-methylazetidin-1-yl)pyridin-2-yl)-N-(6-methoxy-1-methyl-1H-indazol-7-yl)-1H-pyrazole-4-sulfonamide], the IC50 is more than 2.5 µM in experiment [1] and less than 0.4 µM in experiment [2] (setting [3]).

Take `COc1ccc2cnn(C)c2c1NS(=O)(=O)c1cnn(-c2cc(N3CC(OC)C3)ccn2)c1` [Compound I-445]: the concentration for half-maximal inhibition (IC50) in experiment [1] was more than 2.5 µM; in experiment [2] (setting [3]), less than 0.4 µM.

As for `COC1(C)CN(c2ccnc(-n3cc(S(=O)(=O)Nc4cccc5cnn(C)c45)cn3)c2)C1` [Compound I-446, 1-[4-(3-methoxy-3-methylazetidin-1-yl)pyridin-2-yl]-N-(1-methylindazol-7-yl)pyrazole-4-sulfonamide], the figures for the 50% inhibitory concentration (IC50) in experiment [1] and in experiment [2] (setting [3]) were more than 2.5 µM and less than 0.4 µM, respectively.

For the compound `Cn1ncc2cccc(NS(=O)(=O)c3cnn(-c4cnn5c4COCCC5)c3)c21` [Compound I-447, 1-(7,8-Dihydro-4H,6H-Pyrazolo[5,1-C][1,4]Oxazepin-3-yl)-N-(1-Methyl-1H-Indazol-7-yl)-1H-Pyrazole-4-Sulfonamide], the IC50 is more than 2.5 µM in experiment [1] and 0.4 to 1 µM in experiment [2] (setting [3]).

As to `Cn1ncc2cccc(NS(=O)(=O)c3cnn(-c4cc(C5(C#N)CCCC5)ccn4)c3)c21` [Compound I-448, 1-(4-(1-cyanocyclopentyl)pyridin-2-yl)-N-(1-methyl-1H-indazol-7-yl)-1H-pyrazole-4-sulfonamide], the IC50 in experiment [1] is more than 2.5 µM; in experiment [2] (setting [3]) it was less than 0.4 µM.

Turning to `COc1ccc2cnn(C)c2c1NS(=O)(=O)c1cnn(-c2cc(C3(C#N)CCCC3)ccn2)c1` [Compound I-449, 1-(4-(1-cyanocyclopentyl)pyridin-2-yl)-N-(6-methoxy-1-methyl-1H-indazol-7-yl)-1H-pyrazole-4-sulfonamide], the half-inhibitory concentration (IC50) in experiment [1] was 1 to 2.5 µM; in experiment [2] (setting [3]) it was less than 0.4 µM.

In the case of `Cn1ncc2cccc(NS(=O)(=O)c3cnn(-c4cc(N5CC(C)(C#N)C5)ccn4)c3)c21` [Compound I-450, 1-(4-(3-cyano-3-methylazetidin-1-yl)pyridin-2-yl)-N-(1-methyl-1H-indazol-7-yl)-1H-pyrazole-4-sulfonamide], the IC50 is more than 2.5 µM in experiment [1] and less than 0.4 µM in experiment [2] (setting [3]).

`COc1ccc2cnn(C)c2c1NS(=O)(=O)c1cnn(-c2cc(N3CC(C)(OC)C3)ccn2)c1` [Compound I-453]: the IC50 in experiment [1] is more than 2.5 µM; in experiment [2] (setting [3]), 0.4 to 1 µM.

As to `COc1ccc2cnn(C)c2c1NS(=O)(=O)c1cnn(-c2cc(N3CC(C#N)C3)ccn2)c1` [Compound I-454], the IC50 is more than 2.5 µM in experiment [1] and 0.4 to 1 µM in experiment [2] (setting [3]).

For `COc1ccc2cnn(C)c2c1NS(=O)(=O)c1cnn(-c2cnn3c2COCCC3)c1` [Compound I-455, N-(6-methoxy-1-methylindazol-7-yl)-1-{4H,6H,7H,8H-pyrazolo[3,2-c][1,4]oxazepin-3-yl}pyrazole-4-sulfonamide], the IC50 in experiment [1] was more than 2.5 µM; in experiment [2] (setting [3]) it was 1 to 2.5 µM.

For the compound `Cn1ncc2cccc(NS(=O)(=O)c3cnn(-c4cc(C5(C#N)CCC5)ccn4)c3)c21` [Compound I-456], the half-inhibitory concentration (IC50) is more than 2.5 µM in experiment [1] and less than 0.4 µM in experiment [2] (setting [3]).

On to `COc1ccc2cnn(C)c2c1NS(=O)(=O)c1cnn(-c2cc(C3(C#N)CCC3)ccn2)c1` [Compound I-457, 1-(4-(1-Cyanocyclobutyl)Pyridin-2-yl)-N-(6-Methoxy-1-Methyl-1H-Indazol-7-yl)-1H-Pyrazole-4-Sulfonamide], for which the IC50 in experiment [1] is 0.4 to 1 µM; in experiment [2] (setting [3]), less than 0.4 µM.

`Cn1ncc2cccc(NS(=O)(=O)c3cnn(-c4cc(N5CC(C)(C(N)=O)C5)ccn4)c3)c21` [Compound I-458]: the IC50 in experiment [1] and in experiment [2] (setting [3]) was more than 2.5 µM throughout.

In the case of `COc1ccc2cnn(C)c2c1NS(=O)(=O)c1cnn(-c2cc(N3CC(C(N)=O)C3)ccn2)c1` [Compound I-459], the 50% inhibitory concentration (IC50) in experiment [1] and in experiment [2] (setting [3]) was more than 2.5 µM throughout.

For `Cn1ncc2cccc(NS(=O)(=O)c3cnn(-c4cc(N5CC(C#N)C5)ccn4)c3)c21` [Compound I-460], the figures for the half-inhibitory concentration (IC50) in experiment [1] and in experiment [2] (setting [3]) were more than 2.5 µM and less than 0.4 µM, respectively.

Consider `COc1ccc2cnn(C)c2c1NS(=O)(=O)c1cnn(-c2cc(N3CC(C)(C#N)C3)ccn2)c1` [Compound I-461], for which the half-inhibitory concentration (IC50) was more than 2.5 µM in experiment [1] and 0.4 to 1 µM in experiment [2] (setting [3]).

Take `COc1ccc2cnn(C)c2c1NS(=O)(=O)c1cnn(-c2cc([C@H](C)N3CCCCC3)ccn2)c1` [Compound I-462, (S)—N-(6-Methoxy-1-Methyl-1H-Indazol-7-yl)-1-(4-(1-(Piperidin-1-yl)Ethyl)Pyridin-2-yl)-1H-Pyrazole-4-Sulfonamide]: the figures for the IC50 in experiment [1] and in experiment [2] (setting [3]) were more than 2.5 µM and less than 0.4 µM, respectively.

Regarding `COc1ccc2cnn(C)c2c1NS(=O)(=O)c1cnn(-c2cc([C@@H](C)N3CCCCC3)ccn2)c1` [Compound I-463], the IC50 in experiment [1] was more than 2.5 µM; in experiment [2] (setting [3]), 0.4 to 1 µM.

Take `Cn1ncc2cccc(NS(=O)(=O)c3cnn(-c4cnn5c4COCC5)c3)c21` [Compound I-464, N-(1-methylindazol-7-yl)-1-{4H,6H,7H-pyrazolo[3,2-c][1,4]oxazin-3-yl}pyrazole-4-sulfonamide]: the IC50 in experiment [1] is more than 2.5 µM; in experiment [2] (setting [3]), 0.4 to 1 µM.

On to `Cn1ncc2cccc(NS(=O)(=O)c3cnn(-c4cnn5c4OCCC5)c3)c21` [Compound I-465, N-(1-methylindazol-7-yl)-1-{5H,6H,7H-pyrazolo[3,2-b][1,3]oxazin-3-yl}pyrazole-4-sulfonamide], for which the results for the concentration for half-maximal inhibition (IC50) in experiment [1] and in experiment [2] (setting [3]) were more than 2.5 µM and 1 to 2.5 µM, respectively.

For the compound `CN1CCn2ncc(-n3cc(S(=O)(=O)Nc4cccc5cnn(C)c45)cn3)c2C1` [Compound I-466, 1-{5-methyl-4H,6H,7H-pyrazolo[1,5-a]pyrazin-3-yl}-N-(1-methylindazol-7-yl)pyrazole-4-sulfonamide], the IC50 in experiment [1] and in experiment [2] (setting [3]) was more than 2.5 µM throughout.

`COc1ccc2cnn(C)c2c1NS(=O)(=O)c1cnn(-c2cnn3c2OCCC3)c1` [Compound I-467, N-(6-methoxy-1-methylindazol-7-yl)-1-{5H,6H,7H-pyrazolo[3,2-b] [1,3]oxazin-3-yl} pyrazole-4-sulfonamide]: the IC50 in experiment [1] and in experiment [2] (setting [3]) was more than 2.5 µM in each case.

For the compound `COc1ccc2cnn(C)c2c1NS(=O)(=O)c1cnn(-c2cnn3c2CN(C)CC3)c1` [Compound I-468, N-(6-methoxy-1-methylindazol-7-yl)-1-{5-methyl-4H,6H,7H-pyrazolo[1,5-a]pyrazin-3-yl}pyrazole-4-sulfonamide], the IC50 in experiment [1] and in experiment [2] (setting [3]) was more than 2.5 µM in each case.

With `Cn1ncc2cccc(NS(=O)(=O)c3cnn(-c4cc(C5(C#N)CC5)ccn4)c3)c21` [Compound I-469, 1-(4-(1-cyanocyclopropyl)pyridin-2-yl)-N-(1-methyl-1H-indazol-7-yl)-1H-pyrazole-4-sulfonamide], the IC50 was more than 2.5 µM in experiment [1] and less than 0.4 µM in experiment [2] (Jurkat).

Regarding `COc1ccc2cnn(C)c2c1NS(=O)(=O)c1cnn(-c2cc(C3(C#N)CC3)ccn2)c1` [Compound I-470, 1-[4-(1-cyanocyclopropyl)pyridin-2-yl]-N-(6-methoxy-1-methylindazol-7-yl)pyrazole-4-sulfonamide], the IC50 in experiment [1] was 0.4 to 1 µM; in experiment [2] (Jurkat) it was less than 0.4 µM.

With `Cn1ncc2cccc(NS(=O)(=O)c3cnn(-c4cc(N5CC(C(N)=O)C5)ccn4)c3)c21` [Compound I-471, 1-(2-(4-(N-(1-methyl-1H-indazol-7-yl)sulfamoyl)-1H-pyrazol-1-yl)pyridin-4-yl)azetidine-3-carboxamide], the IC50 in experiment [1] and in experiment [2] (setting [3]) was more than 2.5 µM each time.

For `COc1ccc2cnn(C)c2c1NS(=O)(=O)c1cnn(-c2cc(N3CC(C)(C(N)=O)C3)ccn2)c1` [Compound I-472], the results for the IC50 in experiment [1] and in experiment [2] (setting [3]) were more than 2.5 µM and 1 to 2.5 µM, respectively.

Regarding `Cn1ncc2cccc(NS(=O)(=O)c3cnn(-c4cnc5n4CCOC5)c3)c21` [Compound I-473, 1-(5,6-dihydro-8H-imidazo[2,1-c][1,4]oxazin-3-yl)-N-(1-methyl-1H-indazol-7-yl)-1H-pyrazole-4-sulfonamide], the 50% inhibitory concentration (IC50) in experiment [1] and in experiment [2] (setting [3]) was more than 2.5 µM throughout.
